Results on three molecules are retold here after patent US20090291071A1, “COMPOSITIONS AND METHODS FOR CONTROLLING LIPID METABOLISM” (priority 2007, published 2009).

Read-outs that look alike come from different tables or passages of the source.

In test [1] the test system is lipoprotein. In words: Glycation of lipoprotein by sugars. The class given is biochemical. To be noted: for glycation of the lipoprotein by glucose and D-ribose: combined with glucose or D-ribose, and lipoprotein. The text has this: When dried beer solids, […], Vitamin E and Vitamin C were combined with glucose or D-ribose, and lipoprotein, glycation of the lipoprotein by glucose and D-ribose was inhibited. Similarly when RBC-Vitamin C or Vitamin E were combined with sorbitol and lipoprotein, glycation of the lipoprotein by sorbitol was inhibited.

In test [2] the test system is lipoprotein. Put plainly: Inhibition of lipoprotein oxidation (heart disease model). Type of test: biochemical. More on the design: % Inhibition Vit C Alone: concentration or dose not given beside the values. From the text: Various combinations of antioxidants were studied to determine synergetic effects on lipoprotein oxidation. […] The antioxidants were used alone and together at micromolar and submolar concentrations to determine additive and […] effects on percentage inhibition of lipoprotein oxidation. A result when used together which is greater than the sum of this effects alone is considered to be a synergistic response. […] (Upper Panel) and Grow C (a natural Vitamin C extract) (Lower Panel).

Another test deals with LDL. To be noted: humans, daily ingestion of 1,200 IU; cited from earlier work.

On to `O=C1O[C@H]([C@@H](O)CO)C(O)=C1O` [Vit C, ascorbic acid], for which, in the test on lipoprotein [1], the “glycation of the lipoprotein by glucose and D-ribose” value was “inhibited”. The “% Inhibition Vit C Alone” value in the test on lipoprotein [2] (line of Weight Ratio Vit C:DBS 0.136:1) is given as 0%; in the test on lipoprotein [2] (line of Weight Ratio Vit C:DBS 0.274:1), 1.2%; in the test with lipoprotein [2] (line of Weight Ratio Vit C:DBS 0.343:1), 2.0%; in the test on lipoprotein [2] (line of Weight Ratio Vit C:DBS 0.520:1), 2.6%; in the test with lipoprotein [2] (line of Weight Ratio Vit C:DBS 0.680:1), 3.0%.

As to Catechin, the “quantity of L-ascorbic acid remaining” value by setting is: (0 h (time zero, reference)) 100%; (6 h, test substance 0.01 mg/ml) 14.6%; (6 h, test substance 0.1 mg/ml) 16.7%; (6 h, test substance 1.0 mg/ml) 17.7%; (20 h, test substance 0.01 mg/ml) 0.8%; (20 h, test substance 0.1 mg/ml) 0.8%. For the same molecule, the “quantity of L-ascorbic acid remaining” value by setting is: (20 h, test substance 1.0 mg/ml) 1.0%; (44 h, test substance 0.01 mg/ml) 1.4%; (44 h, test substance 0.1 mg/ml) 1.0%; (44 h, test substance 1.0 mg/ml) 1.2%; (72 h, test substance 0.01 mg/ml) 2.4%; (72 h, test substance 0.1 mg/ml) 2.0%. Moreover, under “72 h, test substance 1.0 mg/ml”, the “quantity of L-ascorbic acid remaining” value was determined as 2.2%. The “inhibition of L-ascorbic acid degradation” value (tested up to 1.0 mg/ml) is “Neither epicatechin (EPC) nor catechin (CAT) showed any inhibitory effects”.

For the molecule `Cc1c(C)c2c(c(C)c1O)CC[C@@](C)(CCC[C@H](C)CCC[C@H](C)CCCC(C)C)O2` [E, α-tocopherol], in the test with lipoprotein [1], the “glycation of the lipoprotein by glucose and D-ribose” value is listed as “inhibited”. In addition, the “glycation of the lipoprotein by sorbitol” value in the test with lipoprotein [1] (combined with sorbitol and lipoprotein) was “inhibited”. In the test with LDL, the “increase of the (alpha)-tocopherol content of LDL” value is reported as “up to 215%” and the “increase of the resistance of LDL to oxidation” value is recorded as ≤ 175%. Moreover, the “% Inhibition of E Alone” value in the test with lipoprotein [2] (E 25.6 mg) is on record as 10.1%.
